pEC50: −log10 of the molar value. Where two headings read alike, the source gives them in different places.
Legend:
[1] = tested on: SARS-CoV-2; assay: microbe, parasite or virus in culture; type: cell-based
[2] = tested on: Recombinant Respiratory Syncytial virus strain A2 containing the firefly luciferase reporter (RSV-Fluc); assay: microbe, parasite or virus in culture; type: cell-based
[3] = tested on: MT4; assay: MT4 cytotoxicity (CC50); settings: read-out: MT4 CC50; Table 2a
[4] = A549 cytotoxicity analysis (CellTiter-Glo); type: cell-based; settings: human; A549 cells, 48 hours; Table 1
Protocol: The cytotoxicity of compounds was determined in A549 cells in the following manner. Compounds (40 nL) were spotted onto 384-well Grenier plates prior to seeding 5000 A549 cells/well in a volume of 40 μL culture medium. The plates were incubated at 37° C. for 48 hours with 5% CO2. On day 2, 40 μL of CellTiter-Glo (Promega) was added and mixed 5 times. Plates were read for luminescence on an Envision (PerkinElmer) and the CC50 (compound concentration for reducing 50% of luminescence signal as a measure of cell viability) were calculated using a nonlinear regression model (four parameters). Two experiments were performed with technical duplicates.

[5] = MT4 cytotoxicity (CC50); settings: human, MT4 cells, MT4 CC50, Table 1a

| Compound | pEC50 ([1]; read-out: SARS EC50) | pEC50 ([2]; read-out: RSV EC50, Table 2a) | pEC50 ([2]; read-out: RSV-Fluc EC50 (NHBE), NHBE cells, three days, Table 2) | CC50 [3] [nM] | pEC50 ([1]; Severe acute respiratory syndrome coronavirus 2, 48 h, read-out: SARS-CoV-2 EC50) | pEC50 ([2]; human respiratory syncytial virus, NHBE, 72 h, read-out: RSV-Fluc EC50 (NHBE), NHBE cells, three days, Table 1) | CC50 at 48 h [4] [nM] | CC50 [5] [nM] |
| --- | --- | --- | --- | --- | --- | --- | --- | --- |
| CCCCCCCCCCCCCCCCCCOC[C@H](COP(=O)(O)OC[C@H]1O[C@@](C#N)(c2ccc3c(N)ncnn23)[C@H](O)[C@@H]1O)OC(C)c1ccccc1 (single isomer, unassigned) [Example 28] | 5.64 | 7.12 | 7.15 | 1060 | – | – | – | – |
| CCCCCCCCCCCCCCCCCCOC[C@H](COP(=O)(O)OC[C@H]1O[C@@](C#N)(c2ccc3c(N)ncnn23)[C@H](O)[C@@H]1O)OCC1CCCCC1 [Example 3, ((2R,3S,4R,5R)-5-(4-aminopyrrolo[2,1-f][1,2,4]triazin-7-yl)-5-cyano-3,4-dihydroxytetrahydrofuran-2-yl)methyl ((R)-2-(cyclohexylmethoxy)-3-(octadecyloxy)propyl) hydrogen phosphate] | – | – | – | – | 6.47 | 6.92 | 19000 | 14000 |
